The values that follow come from publication PMC8142146 (Bioorganic chemistry, 2020).

Experiment in all cases: PARP-isoform screening, Chemiluminescent Activity Assay Kit
Common to all, as to type: biochemical
Holding throughout (conditions): Figure 5

One experiment deals with T1, PARP8 (Homo sapiens, UniProt Q8N3A8).
T1 sequence (Q8N3A8 1-854): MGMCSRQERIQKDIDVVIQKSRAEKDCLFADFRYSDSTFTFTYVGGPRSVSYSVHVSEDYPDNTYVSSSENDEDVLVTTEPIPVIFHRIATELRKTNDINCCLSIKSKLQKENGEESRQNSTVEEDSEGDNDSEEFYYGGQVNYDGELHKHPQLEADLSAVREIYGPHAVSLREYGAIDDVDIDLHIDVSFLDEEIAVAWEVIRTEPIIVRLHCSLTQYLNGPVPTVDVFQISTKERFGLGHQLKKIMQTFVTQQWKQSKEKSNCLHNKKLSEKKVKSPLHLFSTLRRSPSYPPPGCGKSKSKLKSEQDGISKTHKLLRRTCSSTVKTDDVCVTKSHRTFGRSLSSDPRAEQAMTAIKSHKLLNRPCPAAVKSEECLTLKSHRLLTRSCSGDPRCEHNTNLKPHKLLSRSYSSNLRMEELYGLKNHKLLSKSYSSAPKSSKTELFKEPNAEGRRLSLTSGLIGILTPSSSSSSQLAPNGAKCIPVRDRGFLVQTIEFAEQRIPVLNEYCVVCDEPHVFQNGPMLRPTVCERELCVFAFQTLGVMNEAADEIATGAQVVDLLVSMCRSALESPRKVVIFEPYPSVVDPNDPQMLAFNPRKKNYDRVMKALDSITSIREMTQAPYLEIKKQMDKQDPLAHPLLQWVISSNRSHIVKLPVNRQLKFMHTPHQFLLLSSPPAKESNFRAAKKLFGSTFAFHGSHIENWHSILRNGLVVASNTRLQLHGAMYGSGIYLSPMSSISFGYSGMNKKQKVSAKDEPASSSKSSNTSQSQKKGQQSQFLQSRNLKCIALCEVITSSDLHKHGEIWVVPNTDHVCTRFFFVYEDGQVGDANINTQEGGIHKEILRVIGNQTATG

The next experiment deals with T2, TNKS2 (PARP5B) (Homo sapiens, UniProt Q9H2K2).
T2 sequence (Q9H2K2 1-1166): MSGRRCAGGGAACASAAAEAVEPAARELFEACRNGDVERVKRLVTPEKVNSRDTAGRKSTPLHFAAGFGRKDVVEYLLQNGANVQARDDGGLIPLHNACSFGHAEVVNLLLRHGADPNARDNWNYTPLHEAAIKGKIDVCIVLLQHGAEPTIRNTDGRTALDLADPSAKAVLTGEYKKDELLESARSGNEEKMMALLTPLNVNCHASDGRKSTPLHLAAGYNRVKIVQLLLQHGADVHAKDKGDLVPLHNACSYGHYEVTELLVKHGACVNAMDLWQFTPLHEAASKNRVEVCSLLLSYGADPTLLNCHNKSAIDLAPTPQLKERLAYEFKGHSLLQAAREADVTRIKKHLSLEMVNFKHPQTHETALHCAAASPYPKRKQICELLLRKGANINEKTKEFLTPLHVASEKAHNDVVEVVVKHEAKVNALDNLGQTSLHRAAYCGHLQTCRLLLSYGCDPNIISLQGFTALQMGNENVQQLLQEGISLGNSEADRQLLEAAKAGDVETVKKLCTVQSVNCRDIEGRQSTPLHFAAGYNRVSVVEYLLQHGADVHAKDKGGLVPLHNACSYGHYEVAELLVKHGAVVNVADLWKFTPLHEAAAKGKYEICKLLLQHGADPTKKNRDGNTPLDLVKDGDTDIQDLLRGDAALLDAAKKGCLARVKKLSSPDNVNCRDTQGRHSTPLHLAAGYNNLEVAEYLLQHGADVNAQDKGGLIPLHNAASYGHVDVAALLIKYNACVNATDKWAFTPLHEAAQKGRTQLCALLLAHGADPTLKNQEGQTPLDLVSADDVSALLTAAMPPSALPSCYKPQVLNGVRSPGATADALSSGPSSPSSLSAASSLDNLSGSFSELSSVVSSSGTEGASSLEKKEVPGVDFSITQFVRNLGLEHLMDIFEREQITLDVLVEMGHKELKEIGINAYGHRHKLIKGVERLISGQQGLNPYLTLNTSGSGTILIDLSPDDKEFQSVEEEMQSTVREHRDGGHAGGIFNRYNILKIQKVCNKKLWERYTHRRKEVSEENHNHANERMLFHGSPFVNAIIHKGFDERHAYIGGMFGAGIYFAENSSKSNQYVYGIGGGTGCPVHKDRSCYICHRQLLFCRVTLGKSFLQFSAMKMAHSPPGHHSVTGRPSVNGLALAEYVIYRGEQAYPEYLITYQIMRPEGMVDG

The target of another experiment is T3, PARP3 (Homo sapiens, UniProt Q9Y6F1).
T3 sequence (Q9Y6F1 1-533): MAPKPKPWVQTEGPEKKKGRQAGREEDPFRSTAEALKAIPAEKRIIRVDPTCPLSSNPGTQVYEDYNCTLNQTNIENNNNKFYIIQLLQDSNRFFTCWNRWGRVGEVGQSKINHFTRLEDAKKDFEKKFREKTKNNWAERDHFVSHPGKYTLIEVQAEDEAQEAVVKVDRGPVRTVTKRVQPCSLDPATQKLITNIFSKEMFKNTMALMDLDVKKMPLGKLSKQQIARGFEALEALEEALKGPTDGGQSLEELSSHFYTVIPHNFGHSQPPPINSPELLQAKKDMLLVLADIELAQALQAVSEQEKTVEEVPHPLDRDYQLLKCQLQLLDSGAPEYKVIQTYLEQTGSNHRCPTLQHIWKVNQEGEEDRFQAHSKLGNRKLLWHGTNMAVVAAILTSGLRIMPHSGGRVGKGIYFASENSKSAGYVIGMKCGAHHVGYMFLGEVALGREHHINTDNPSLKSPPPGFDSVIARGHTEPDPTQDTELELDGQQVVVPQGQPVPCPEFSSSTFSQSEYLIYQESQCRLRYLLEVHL

As for `NC(=O)c1cccc2c1O/C(=C\c1ccc(O)cc1)C(=O)N2` [Compound 49, (Z)-2-(4-Hydroxybenzylidene)-3-oxo-3,4-dihydro-2H-benzo[b][1,4]oxazine-8-carboxamide], the PARP8 inhibition result at PARP8 is “did not interfere”. Besides, the TNKS2 inhibition entry at TNKS2 (PARP5B) is reported as “substantially inhibited”. The PARP3 inhibition entry at PARP3 is reported as “substantially inhibited”.
